In ChEMBL document CHEMBL1201862, “PubChem BioAssay data set” (2004):
Activity calls are given as the source filed them.

Tests used:
Caspase-3 = target: T1, Caspase-3 (Homo sapiens, UniProt P42574); assay type: functional;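 further: Dose-response selectivity test against caspase-3 for candidate inhibitors of sentrin-specific proteases (SENPs)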
T1 sequence (P42574 whole entry): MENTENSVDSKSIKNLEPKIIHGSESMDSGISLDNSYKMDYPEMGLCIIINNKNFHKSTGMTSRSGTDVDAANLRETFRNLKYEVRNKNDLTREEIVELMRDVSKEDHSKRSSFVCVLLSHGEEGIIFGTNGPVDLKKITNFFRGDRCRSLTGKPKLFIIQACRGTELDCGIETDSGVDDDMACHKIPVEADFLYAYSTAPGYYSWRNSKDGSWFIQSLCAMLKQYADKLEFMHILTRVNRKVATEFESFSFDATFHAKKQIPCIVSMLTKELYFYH

[1] = target: T2, Sentrin-specific protease 7 (Homo sapiens, UniProt Q9BQF6); assay type: functional;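 further: Luminescence-based dose-response confirmation of ultra-high-throughput screening hits, measuring inhibition of SENP7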
T2 sequence (Q9BQF6 whole entry): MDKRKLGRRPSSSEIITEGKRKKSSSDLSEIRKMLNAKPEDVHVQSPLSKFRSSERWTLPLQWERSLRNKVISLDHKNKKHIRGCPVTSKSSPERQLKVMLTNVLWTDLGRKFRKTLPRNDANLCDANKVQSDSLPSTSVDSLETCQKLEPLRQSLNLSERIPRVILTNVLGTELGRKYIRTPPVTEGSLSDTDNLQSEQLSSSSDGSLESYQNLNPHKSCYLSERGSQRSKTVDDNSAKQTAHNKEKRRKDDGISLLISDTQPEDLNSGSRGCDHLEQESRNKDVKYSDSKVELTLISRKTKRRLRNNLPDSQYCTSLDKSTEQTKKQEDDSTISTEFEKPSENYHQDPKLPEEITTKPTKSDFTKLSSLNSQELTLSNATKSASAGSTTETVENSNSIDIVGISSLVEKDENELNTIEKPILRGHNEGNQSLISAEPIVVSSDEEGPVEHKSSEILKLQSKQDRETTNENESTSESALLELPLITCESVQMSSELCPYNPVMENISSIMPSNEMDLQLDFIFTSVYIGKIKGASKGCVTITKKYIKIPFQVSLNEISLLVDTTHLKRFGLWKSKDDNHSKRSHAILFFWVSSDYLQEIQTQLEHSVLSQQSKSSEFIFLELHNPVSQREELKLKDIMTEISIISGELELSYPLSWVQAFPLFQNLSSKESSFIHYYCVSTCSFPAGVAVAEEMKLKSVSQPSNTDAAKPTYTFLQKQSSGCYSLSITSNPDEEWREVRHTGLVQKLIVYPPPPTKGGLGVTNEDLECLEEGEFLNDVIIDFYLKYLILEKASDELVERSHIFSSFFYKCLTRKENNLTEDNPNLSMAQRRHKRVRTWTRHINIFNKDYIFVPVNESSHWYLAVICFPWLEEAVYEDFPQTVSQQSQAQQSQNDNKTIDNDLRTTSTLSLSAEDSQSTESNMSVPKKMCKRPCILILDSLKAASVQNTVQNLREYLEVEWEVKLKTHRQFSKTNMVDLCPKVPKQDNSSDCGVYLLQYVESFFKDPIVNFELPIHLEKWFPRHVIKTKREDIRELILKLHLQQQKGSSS

[2] = target: T3, Sentrin-specific protease 6 (Homo sapiens, UniProt Q9GZR1); assay type: functional;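 further: Luminescence-based dose-response confirmatory assay of SENP6 inhibition, following up an ultra-high-throughput screen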
T3 sequence (Q9GZR1 whole entry): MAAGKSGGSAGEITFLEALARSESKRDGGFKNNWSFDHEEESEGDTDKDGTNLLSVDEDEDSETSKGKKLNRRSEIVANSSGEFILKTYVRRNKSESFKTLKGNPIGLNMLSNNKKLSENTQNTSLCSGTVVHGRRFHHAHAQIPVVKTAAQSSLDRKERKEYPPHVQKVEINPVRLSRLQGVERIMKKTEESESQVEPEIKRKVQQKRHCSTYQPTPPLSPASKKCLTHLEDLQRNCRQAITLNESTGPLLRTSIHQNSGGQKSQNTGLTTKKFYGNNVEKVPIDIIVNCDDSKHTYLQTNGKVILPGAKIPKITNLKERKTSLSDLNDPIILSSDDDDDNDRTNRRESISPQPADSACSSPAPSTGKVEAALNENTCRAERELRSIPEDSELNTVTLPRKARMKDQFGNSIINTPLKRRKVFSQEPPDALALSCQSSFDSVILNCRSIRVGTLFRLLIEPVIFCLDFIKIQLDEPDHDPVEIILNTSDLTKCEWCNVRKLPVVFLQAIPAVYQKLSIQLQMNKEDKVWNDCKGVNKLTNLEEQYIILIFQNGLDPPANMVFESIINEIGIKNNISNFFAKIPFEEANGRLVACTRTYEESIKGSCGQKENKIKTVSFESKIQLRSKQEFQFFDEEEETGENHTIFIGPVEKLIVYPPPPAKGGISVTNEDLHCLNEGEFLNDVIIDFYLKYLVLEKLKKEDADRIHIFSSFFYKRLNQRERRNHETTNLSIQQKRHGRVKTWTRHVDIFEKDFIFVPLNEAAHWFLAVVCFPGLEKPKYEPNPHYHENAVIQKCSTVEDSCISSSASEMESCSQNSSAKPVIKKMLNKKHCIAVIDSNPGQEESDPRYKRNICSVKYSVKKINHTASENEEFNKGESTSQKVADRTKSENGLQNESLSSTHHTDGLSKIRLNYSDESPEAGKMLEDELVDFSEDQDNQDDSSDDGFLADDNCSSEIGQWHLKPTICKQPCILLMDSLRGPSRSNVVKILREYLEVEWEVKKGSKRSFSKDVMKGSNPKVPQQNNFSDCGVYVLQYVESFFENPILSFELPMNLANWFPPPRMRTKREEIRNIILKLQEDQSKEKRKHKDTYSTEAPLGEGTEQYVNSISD

[3] = target: T4, Sentrin-specific protease 8 (Homo sapiens, UniProt Q96LD8); assay type: functional;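 further: luminescence read-out of SENP8 inhibition, dose-response confirmation following an ultra-high-throughput screen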
T4 sequence (Q96LD8 whole entry): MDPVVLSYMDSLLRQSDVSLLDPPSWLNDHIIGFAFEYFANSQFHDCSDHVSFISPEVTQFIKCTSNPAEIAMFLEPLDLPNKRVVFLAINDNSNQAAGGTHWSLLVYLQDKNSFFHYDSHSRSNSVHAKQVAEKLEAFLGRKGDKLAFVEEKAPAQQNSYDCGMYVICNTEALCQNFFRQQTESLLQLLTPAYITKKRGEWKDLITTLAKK

[4] = target: T5, Calpain-2 catalytic subunit (Sus scrofa, UniProt P43367); experiment: m-calpain protease blockers, concentration series – biochemical, fluorogenic peptide substrate, dose response (AID 1420); assay type: functional
T5 sequence (P43367 whole entry): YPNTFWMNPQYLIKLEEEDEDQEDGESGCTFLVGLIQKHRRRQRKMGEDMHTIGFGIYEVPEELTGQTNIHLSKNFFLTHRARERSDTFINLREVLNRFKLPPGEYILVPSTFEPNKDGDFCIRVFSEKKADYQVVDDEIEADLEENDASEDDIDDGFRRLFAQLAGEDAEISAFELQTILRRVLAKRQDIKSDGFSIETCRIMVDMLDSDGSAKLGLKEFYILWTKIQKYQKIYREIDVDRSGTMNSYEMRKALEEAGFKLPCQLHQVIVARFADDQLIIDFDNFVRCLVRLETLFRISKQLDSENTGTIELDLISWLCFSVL

[5] = target: DNA dC->dU-editing enzyme APOBEC-3A (Homo sapiens, UniProt P31941); experiment: Dose Response confirmation of small molecule APOBEC3A DNA Deaminase Inhibitors via a fluorescence-based single-stranded DNA deaminase assay. [Related pubchem assays (depositor defined):AID493011, AID493024]; assay type: functional
Chain of DNA dC->dU-editing enzyme APOBEC-3A (P31941 whole entry): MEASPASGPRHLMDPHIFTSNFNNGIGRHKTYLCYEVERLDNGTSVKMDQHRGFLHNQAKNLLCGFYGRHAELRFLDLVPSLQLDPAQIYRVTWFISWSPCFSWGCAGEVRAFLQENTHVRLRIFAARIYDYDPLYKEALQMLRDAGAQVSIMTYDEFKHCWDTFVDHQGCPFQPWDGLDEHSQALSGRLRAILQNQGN

[6] = target: DNA dC->dU-editing enzyme APOBEC-3G (Homo sapiens, UniProt Q9HC16); assay type: functional;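 further: Dose-response counterscreen measuring inhibition of APOBEC3G DNA deaminase activity, run while confirming APOBEC3A inhibitors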
Chain of DNA dC->dU-editing enzyme APOBEC-3G (Q9HC16 whole entry): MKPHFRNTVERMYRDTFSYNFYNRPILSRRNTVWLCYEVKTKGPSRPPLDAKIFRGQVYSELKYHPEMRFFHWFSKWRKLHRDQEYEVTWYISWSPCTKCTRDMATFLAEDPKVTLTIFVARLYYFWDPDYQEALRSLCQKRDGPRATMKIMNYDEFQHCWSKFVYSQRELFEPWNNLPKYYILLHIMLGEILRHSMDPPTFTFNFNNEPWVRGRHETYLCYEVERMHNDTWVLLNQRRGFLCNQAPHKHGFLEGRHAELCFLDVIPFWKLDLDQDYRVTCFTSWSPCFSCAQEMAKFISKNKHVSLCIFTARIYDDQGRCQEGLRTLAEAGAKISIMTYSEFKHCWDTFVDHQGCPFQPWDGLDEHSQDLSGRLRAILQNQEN

[7] = HEK-293T viability loss after treatment – luminescence, T-cell screen hits, cytotoxicity control for TCR NF-kB inhibitor project, dose response (AID 489026); assay type: functional, cell-based;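 further: cells exposed to compound about 14 hours before the viability readout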
HEK293 = experiment: EBV LMP1 TES2 canonical NF-kB signalling blockers – cell-based, HEK293, luciferase, cherry-pick, dose response (AID 588343); assay type: functional; settings: Homo sapiens
[8] = reduction of Shn3 3'UTR-driven luciferase in osteoblasts – cell-based, Clone20 osteoblasts, firefly luciferase, cherry-picked, dose response (AID 624132); assay type: functional;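 further: firefly luciferase luminescence from reporter carrying the Shn3 3'UTR in osteoblasts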
[9] = loss of viability in HepG2 cells – cell-based, CellTiter-Glo, cherry-picked, cytotoxicity control for Shn3 inhibitor project, dose response (AID 624134); assay type: functional
[10] = non-specific 3'UTR reporter inhibition in Clone20-Shn3RL – cell-based, Renilla luciferase, cherry-picked, counter-screen for Shn3 inhibitor project, dose response (AID 624133); assay type: functional
[11] = target: Glucose-6-phosphate 1-dehydrogenase (Homo sapiens, UniProt P11413); experiment: inhibition of Homo sapiens G6PD, dose series – biochemical, fluorescence, selectivity assay for P. falciparum G6PD inhibitor project, dose response (AID 504792); assay type: functional
Chain of Glucose-6-phosphate 1-dehydrogenase (P11413 whole entry): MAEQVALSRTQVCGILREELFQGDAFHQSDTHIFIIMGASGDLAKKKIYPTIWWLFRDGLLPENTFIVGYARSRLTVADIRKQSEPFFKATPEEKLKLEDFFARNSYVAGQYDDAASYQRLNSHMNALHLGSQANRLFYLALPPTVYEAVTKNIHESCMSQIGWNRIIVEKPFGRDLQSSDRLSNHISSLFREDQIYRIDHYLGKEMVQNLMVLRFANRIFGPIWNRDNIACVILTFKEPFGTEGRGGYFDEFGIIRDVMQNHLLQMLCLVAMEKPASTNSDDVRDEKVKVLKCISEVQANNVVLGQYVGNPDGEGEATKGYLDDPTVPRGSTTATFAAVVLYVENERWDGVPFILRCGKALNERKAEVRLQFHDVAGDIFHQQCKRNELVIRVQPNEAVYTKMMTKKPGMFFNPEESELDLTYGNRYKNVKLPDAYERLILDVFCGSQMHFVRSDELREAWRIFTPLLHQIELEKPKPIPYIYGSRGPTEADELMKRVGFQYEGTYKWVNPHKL

[12] = test system: Streptococcus sp. 'group A'; experiment: Streptococcus pyogenes SK(-)GAS viability under kanamycin – luminescence, BacTiterGlo, confirmation, counter-screen for streptokinase expression inhibitor project, dose response (AID 1900); assay type: functional, organism-based
[13] = target: T6, Heat shock factor protein 1 (Mus musculus, UniProt P38532); experiment: decrease of HSF1-responsive luciferase luminescence – cell-based, NIH3T3, dose retest, confirmation (AID 2382); assay type: functional;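 further: NIH3T3 fibroblasts with HSF1-driven luciferase reporter stressed by proteasome inhibitor MG132; luminescence from HSF1-driven luciferase expression after 8 hours of MG132 stress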
T6 sequence (P38532 whole entry): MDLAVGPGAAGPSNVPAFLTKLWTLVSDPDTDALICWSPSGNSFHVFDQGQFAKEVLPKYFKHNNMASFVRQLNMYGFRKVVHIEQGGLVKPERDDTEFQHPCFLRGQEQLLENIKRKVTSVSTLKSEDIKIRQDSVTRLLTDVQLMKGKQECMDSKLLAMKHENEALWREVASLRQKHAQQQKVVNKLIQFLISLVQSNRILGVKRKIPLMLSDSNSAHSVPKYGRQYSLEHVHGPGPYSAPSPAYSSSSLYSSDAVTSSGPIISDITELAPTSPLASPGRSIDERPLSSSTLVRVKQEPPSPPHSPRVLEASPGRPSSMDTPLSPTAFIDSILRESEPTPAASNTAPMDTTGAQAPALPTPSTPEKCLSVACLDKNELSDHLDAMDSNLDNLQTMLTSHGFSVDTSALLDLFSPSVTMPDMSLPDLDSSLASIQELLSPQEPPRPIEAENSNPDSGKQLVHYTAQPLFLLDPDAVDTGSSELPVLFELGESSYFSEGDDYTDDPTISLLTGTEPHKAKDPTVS

Streptokinase A = target: T7, Streptokinase A (Streptococcus pyogenes serotype M1, UniProt P10520); experiment: viability-normalized secreted streptokinase activity reduction – plasminogen activation absorbance, OD405, dose response (AID 1914); assay type: functional, Streptococcus pyogenes M1 GAS;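 further: secreted streptokinase activity via plasminogen activation per viability signal from cell pellet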
T7 sequence (P10520 whole entry): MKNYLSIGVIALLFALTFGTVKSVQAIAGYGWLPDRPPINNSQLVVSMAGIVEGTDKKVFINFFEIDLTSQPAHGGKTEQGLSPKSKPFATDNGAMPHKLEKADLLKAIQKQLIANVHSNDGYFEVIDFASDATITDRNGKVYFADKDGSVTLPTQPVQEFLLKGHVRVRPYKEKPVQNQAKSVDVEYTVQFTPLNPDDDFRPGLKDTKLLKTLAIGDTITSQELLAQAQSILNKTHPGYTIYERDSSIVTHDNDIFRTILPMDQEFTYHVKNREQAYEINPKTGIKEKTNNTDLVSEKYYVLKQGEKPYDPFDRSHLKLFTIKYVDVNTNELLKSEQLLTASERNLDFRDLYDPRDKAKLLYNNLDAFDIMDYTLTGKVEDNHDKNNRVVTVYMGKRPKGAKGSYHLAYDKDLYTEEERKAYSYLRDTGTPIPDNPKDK

Streptococcus = experiment: GAS UMAA2166 growth inhibition – luminescence, BacTiterGlo, counter-screen for streptokinase expression inhibitor project, dose response (AID 1915); assay type: functional, organism-based;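 further: potency for reduction of bacterial viability or growth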
Genome polyprotein = Genome polyprotein (dengue virus type 2, UniProt P29990); experiment: flavivirus cap methylation enzyme inhibition – biochemical, confirmation dose response, primary screen (AID 588689); assay type: functional
Chain of Genome polyprotein (P29990 2492-3391 limits assumed): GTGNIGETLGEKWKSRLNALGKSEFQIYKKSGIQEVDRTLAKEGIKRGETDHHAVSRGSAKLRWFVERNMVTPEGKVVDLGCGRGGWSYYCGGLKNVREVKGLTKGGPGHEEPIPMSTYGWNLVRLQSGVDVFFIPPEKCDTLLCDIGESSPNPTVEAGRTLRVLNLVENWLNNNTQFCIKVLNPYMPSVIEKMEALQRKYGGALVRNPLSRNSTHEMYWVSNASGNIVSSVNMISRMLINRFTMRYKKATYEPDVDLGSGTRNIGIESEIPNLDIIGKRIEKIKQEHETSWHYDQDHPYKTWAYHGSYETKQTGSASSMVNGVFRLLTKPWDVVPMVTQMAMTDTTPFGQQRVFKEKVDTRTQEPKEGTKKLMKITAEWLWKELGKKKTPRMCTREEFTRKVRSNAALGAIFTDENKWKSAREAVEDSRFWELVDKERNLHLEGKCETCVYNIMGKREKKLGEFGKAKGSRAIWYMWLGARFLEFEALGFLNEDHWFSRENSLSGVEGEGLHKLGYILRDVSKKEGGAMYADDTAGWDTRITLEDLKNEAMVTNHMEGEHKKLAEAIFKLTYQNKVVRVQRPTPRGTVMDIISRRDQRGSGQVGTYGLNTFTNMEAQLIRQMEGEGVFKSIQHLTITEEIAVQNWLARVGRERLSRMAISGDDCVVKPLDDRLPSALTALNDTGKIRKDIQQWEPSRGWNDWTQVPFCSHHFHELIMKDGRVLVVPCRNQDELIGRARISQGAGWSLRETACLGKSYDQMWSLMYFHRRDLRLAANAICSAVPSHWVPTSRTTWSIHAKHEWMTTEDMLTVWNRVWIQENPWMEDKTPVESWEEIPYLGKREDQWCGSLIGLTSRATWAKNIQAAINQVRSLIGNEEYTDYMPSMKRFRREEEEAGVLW

[14] = viability of uninfected HEp-2 cells – cell-based, HTS, cytotoxicity control for RSV inhibitor project, dose response (AID 2410); assay type: functional; settings: human respiratory syncytial virus
Cytochrome P450 2D6 = Cytochrome P450 2D6 (Homo sapiens, UniProt P10635);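 further: CYP2D6 member of a cytochrome P450 panel assay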
Chain of Cytochrome P450 2D6 (P10635 whole entry): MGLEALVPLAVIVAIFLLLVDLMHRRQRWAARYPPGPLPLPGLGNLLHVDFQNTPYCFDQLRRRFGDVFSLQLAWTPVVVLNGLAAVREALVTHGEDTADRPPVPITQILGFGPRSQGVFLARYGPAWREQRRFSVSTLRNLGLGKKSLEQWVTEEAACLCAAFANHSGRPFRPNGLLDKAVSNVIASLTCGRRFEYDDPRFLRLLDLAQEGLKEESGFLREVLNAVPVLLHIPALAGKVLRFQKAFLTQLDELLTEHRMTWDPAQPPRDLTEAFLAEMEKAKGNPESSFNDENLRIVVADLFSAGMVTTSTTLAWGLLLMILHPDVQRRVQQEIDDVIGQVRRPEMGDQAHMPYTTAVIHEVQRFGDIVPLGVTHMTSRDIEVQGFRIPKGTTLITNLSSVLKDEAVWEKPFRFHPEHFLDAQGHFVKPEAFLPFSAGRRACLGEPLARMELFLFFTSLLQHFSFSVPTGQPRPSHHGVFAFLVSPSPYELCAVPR

CCOC(=O)c1c(C)[nH]c(N=Nc2cccc(C)c2)c1C
IC50 (Caspase-3): 40.3 µM (active) | IC50 [1]: 5.37 µM (active) | IC50 [2]: 18 µM (active) | IC50 [3]: 14.7 µM (active)

CCCc1ccc(OC(=O)c2ccc(O)cc2Cl)cc1
IC50 [4]: 3.76 µM (not active) | IC50 (Caspase-3): 38.4 µM (active) | IC50 [1]: 8.1 µM (active) | IC50 [2]: 8.84 µM (active) | IC50 [3]: 9.08 µM (active)

CCc1n(CC(O)COC2CCCCC2)c2ccccc2[n+]1C (centres undefined)
IC50 [5]: 1.75 µM (active) | IC50 [6]: 1.42 µM (active)

COc1cccc(-c2cc(C(=O)Nc3cc(C)n(Cc4ccc(Cl)cc4)n3)no2)c1
IC50 [7]: > 80 µM (inactive)

Fc1ccc2[nH]c3c(N4CCN(c5ccccc5)CC4)ncnc3c2c1
AC50 (HEK293): 6.19 µM (active) | AC50 [8]: 3.78 µM (active) | AC50 [9]: 31.5 µM (active) | AC50 [10]: 5.5 µM (active)

[O-]/[N+](=C\c1ccncc1)c1ccccc1
IC50 [11]: > 80 µM (inactive)

O=C(Nc1nnc(S(=O)(=O)N2CCCCC2)s1)c1cccc(Br)c1
IC50 [11]: > 80 µM (inactive)

O=C(O)CN1C(=O)/C(=C\c2ccccc2OCc2ccc(Cl)cc2Cl)SC1=S
EC50 [12]: 4.28 µM (active) | EC50 [13]: 2.58 µM (active) | EC50 (Streptokinase A): 17.9 µM (inconclusive) | EC50 (Streptococcus): 32.4 µM (active) | AC50 (HEK293): 12.7 µM (active) | IC50 (Genome polyprotein): 87.6 µM (active)

O=C(CSc1ccccn1)Nc1cccc2ccccc12
IC50 [5]: 8.82 µM (active) | IC50 [6]: 6 µM (active)

Nc1ccccc1C#Cc1ccc([N+](=O)[O-])cc1
IC50 (Caspase-3): 23.2 µM (active) | IC50 [1]: 6.02 µM (active) | IC50 [2]: 31 µM (active) | IC50 [3]: 80 µM (active)

O=C(N/N=C/c1cccc(O)c1)c1ccc2c(c1)OCCO2
AC50 (HEK293): 0.889 µM (active)

Cc1c(Cl)c([N+](=O)[O-])nn1Cc1ccc(C(=O)N/N=C\c2cccc(Br)c2)o1
CC50 [14]: 39.4 µM (active) | IC50 [11]: > 80 µM (inactive) | AC50 (Cytochrome P450 2D6): 25.1 µM (inconclusive)
